{
  "source": "patent US8048910B2",
  "about": "“Combination of R,R-glycopyrrolate, rolipram, and budesonide for the treatment of inflammatory diseases” (Meda Pharma GmbH & Co. KG, priority 2005, dated 2011)",
  "key": {"allergic conjunctivitis": {"tested_on": "allergic conjunctivitis", "details": "rats, administered topically into the eyes; cited from earlier work"}, "[1]": {"tested_on": "LPS-induced TNFα release from human monocytes", "assay": "LPS-stimulated TNFα release from human monocytes (ELISA)", "type": "cell-based", "procedure": "The influence of monocompounds and their various combinations, also in three-in-one on TNF secretion was investigated by using human monocytes. The study was approved by our institutional Ethics Committee according to the International Declarations of Helsinki and Tokyo.\nPeripheral blood mononuclear cells (PBMCs) were isolated from heparinized blood samples of healthy donors by density gradient centrifugation. An equal volume of Hanks buffer (Invitrogen, Heidelberg, Germany) was added to heparinized whole blood samples. […] A visible band containing PBMCs was transferred to a fresh tube and washed twice with Hanks-buffer. […] 5% CO2 overnight. Monocytes were isolated from other cells by adherence method, non-adherent cells were removed by changing the medium.\nCells were re-suspended at 10^6 cells/ml and incubated in 500 μl volumes in 24-well tissue culture plates (Falcon Becton Dickinson Labware, Heidelberg, Germany) at 37° C., 5% CO2. After pre-incubation with test substances (0.5 μl/500 μl medium) for 30 min, cells were stimulated with lipopolysaccharide (LPS) (Sigma, Deisenhofen, Germany) (1 μg/ml). After 24 h of incubation, cells were sedimented by centrifugation. The supernatants were harvested and kept frozen at −80° C. until protein determination.\nCytokine measurements in culture supernatants were done by sandwich ELISA using matched antibody pairs (BD Pharmingen, Heidelberg, Germany). ELISA plates (Maxisorb, Nunc, Wiesbaden, Germany) were coated overnight with anti-cytokine monoclonal antibody (mAb) in 0.1M carbonate buffer, pH 9.5. After being washed, plates were blocked with Assay Diluent (BD Pharmingen, Heidelberg, Germany) for 1 h and washed again. Appropriately diluted supernatant samples and standards were distributed in duplicates and the plates were incubated for 2 h at room temperature. Plates were washed, incubated for 1 h with working detector (biotinylated anti-cytokine antibody and Avidin-horseradish peroxidase conjugate) (BD Pharmingen, Heidelberg, Germany). After washing, substrate (TMB and hydrogen peroxide) was added. The reaction was stopped by adding of 1M H3PO4. Plates were read at 450 nm (reference 570 nm) in a microplate reader (Dynatech, Alexandria, USA). The results were expressed as a percentage of the control level of cytokines production by cells stimulated in the absence of the compound."}, "[2]": {"details": "dog, in vivo, 15 mg/kg; cited from earlier work"}, "[3]": {"tested_on": "allergen-induced airway eosinophilia", "details": "Brown Norway rats; administered directly into the lungs; cited from earlier work"}, "M3 muscarinic receptors": {"target": "M3 muscarinic receptors (Homo sapiens, UniProt P20309)", "sequence (P20309 whole entry)": "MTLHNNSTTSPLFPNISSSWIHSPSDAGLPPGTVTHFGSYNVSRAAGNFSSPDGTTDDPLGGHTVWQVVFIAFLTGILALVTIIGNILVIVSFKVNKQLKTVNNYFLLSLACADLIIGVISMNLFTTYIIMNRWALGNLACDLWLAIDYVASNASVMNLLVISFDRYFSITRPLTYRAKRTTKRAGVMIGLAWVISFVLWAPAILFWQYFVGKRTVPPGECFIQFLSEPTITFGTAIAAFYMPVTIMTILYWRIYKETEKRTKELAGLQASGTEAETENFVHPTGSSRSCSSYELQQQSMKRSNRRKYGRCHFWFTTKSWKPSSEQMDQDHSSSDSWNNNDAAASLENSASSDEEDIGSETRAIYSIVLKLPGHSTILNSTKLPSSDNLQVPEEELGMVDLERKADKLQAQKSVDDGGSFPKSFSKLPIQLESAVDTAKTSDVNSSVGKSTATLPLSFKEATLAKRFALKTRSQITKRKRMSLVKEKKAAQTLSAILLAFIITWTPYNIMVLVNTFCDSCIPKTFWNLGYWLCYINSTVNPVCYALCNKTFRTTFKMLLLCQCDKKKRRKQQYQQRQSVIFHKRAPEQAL", "details": "kinetics studies; cited from earlier work"}, "M1-M3 receptors": {"tested_on": "M1-M3 receptors", "details": "cited from earlier work"}, "[4]": {"details": "animal experiments; completely reversed by adding scopolamine; cited from earlier work"}, "[5]": {"details": "mice; cited from earlier work"}, "[6]": {"tested_on": "collagen-induced arthritis", "details": "rats; cited from earlier work"}},
  "data": [
    {"smiles": "COc1cc(C(=O)NS(=O)(=O)c2ccccc2C)ccc1Cc1cn(C)c2ccc(NC(=O)OC3CCCC3)cc12", "note": "[Zafirlukast, zafirlukast]", "values": [
      {"measurement": "development of symptoms and mediator release", "setting": "allergic conjunctivitis", "result": "effectively inhibit"}
    ]},
    {"smiles": "CCCC1O[C@@H]2C[C@H]3[C@@H]4CCC5=CC(=O)C=C[C@]5(C)[C@H]4[C@@H](O)C[C@]3(C)[C@]2(C(=O)CO)O1", "note": "(stereo partly shown) [budesonide]", "values": [
      {"measurement": "IC50", "setting": "[1]; Monocyte, human monocytes, LPS 1 μg/ml, 24 h, read-out: IC50 for inhibition of TNFα release", "result": "0.55 ± 0.13", "unit": "nM"}
    ]},
    {"smiles": "O=C(Nc1c(Cl)cncc1Cl)C(=O)c1cn(Cc2ccc(F)cc2)c2ccc(O)cc12", "note": "[AWD 12-281]", "values": [
      {"measurement": "emesis", "setting": "[2]", "result": "no emesis could be induced"},
      {"measurement": "ID50 for suppression of allergen-induced airway eosinophilia", "setting": "[3]", "result": 7, "unit": "µg/kg"}
    ]},
    {"smiles": "C[C@H]1C[C@H]2[C@@H]3CCC4=CC(=O)C=C[C@]4(C)[C@@]3(Cl)[C@@H](O)C[C@]2(C)[C@@]1(O)C(=O)CO", "note": "[beclomethasone]", "values": [
      {"measurement": "ID50 for suppression of allergen-induced airway eosinophilia", "setting": "[3]", "result": 0.1, "unit": "µg/kg"}
    ]},
    {"smiles": "C[N+]1(C)CCC(OC(=O)C(O)(c2ccccc2)C2CCCC2)C1", "note": "(racemic) [glycopyrrolate, racemic glycopyrrolate]", "values": [
      {"measurement": "dissociation from M3 muscarinic receptors", "setting": "M3 muscarinic receptors", "result": "dissociates slowly"},
      {"measurement": "selectivity in binding to the M1-M3 receptors", "setting": "M1-M3 receptors", "result": "no selectivity"}
    ]},
    {"smiles": "C[N+]1(C)CC[C@@H](OC(=O)[C@](O)(c2ccccc2)C2CCCC2)C1.[Br-]", "note": "[R,R-glycopyrrolate]", "values": [
      {"measurement": "influence of the single substance on LPS-induced TNFα release", "setting": "[1]; human monocytes, LPS 1 μg/ml, 24 h, concentrations up to 10 μM", "result": "did not influence"}
    ]},
    {"smiles": "COc1ccc(C2CNC(=O)C2)cc1OC1CCCC1", "note": "(stereo not shown) [rolipram]", "values": [
      {"measurement": "IC35 for inhibition of TNFα release", "setting": "[1]; IC35 determined instead of IC50 because maximum inhibition was around 70%", "result": "68.9 ± 15.2", "unit": "nM"},
      {"measurement": "maximum inhibition of TNFα release", "setting": "[1]; human monocytes, LPS 1 μg/ml, 24 h", "result": "around 70%"},
      {"measurement": "sedative effects (hypoactivity, decreased locomotion)", "setting": "[4]", "result": "induces sedative effects"},
      {"measurement": "physiological bone formation and bone mass", "setting": "[5]", "result": "enhance physiological bone formation and thereby increase bone mass"},
      {"measurement": "clinical and histological severity of collagen-induced arthritis", "setting": "[6]", "result": "reduced the clinical and histological severity"}
    ]}
  ]
}
